The values that follow come from patent publication US20220087996A1, “Histone acetylase p300 inhibitor and use thereof” (HINOVA PHARMACEUTICALS INC., priority 2018, published 2022).

Like-named read-outs stand apart in the source and are kept apart here.

In general, IC50 refers to the concentration needed to halve the response being measured.

The assay has as its system CWR22RV1 cells. Briefly: Inhibition of proliferation of CWR22RV1 cells (CCK-8). Particulars: Homo sapiens, CWR22Rv1, 144 h, 6 days culture. The class given is cell-based, human. Here is the method:
1) CWR22RV1 cells were subcultured in cell culture medium, and the cells in good growth condition were seeded in a 96-well plate, 80 μL for each well, and the cell number in each well was 1500. The plate was incubated overnight in a 37° C., 5% CO2 cell incubator. 2) The drug was prepared as 30 mM stock solution with dimethyl sulfoxide (DMSO). Prior to use, the stock solution was diluted 3 times with DMSO, and then further diluted as 3-fold gradient to obtain 9 concentration gradients. Then, each concentration of compound was diluted 200 times with the culture solution (ensuring that the DMSO concentration in the culture system was 0.1%), and two replicate wells were set for each concentration. 20 μL of diluted compound solution was added to the cell culture well (with final concentrations of 10 μM, 3.3 μM. 1.1 μM . . . ), and the plate was gently shaken to mix. In addition, 3 negative control wells containing only cells and 3 blank control wells containing only culture medium were included (6 wells were each added 20 μL DMSO diluted 200 times with culture medium). 2. Result detection: (1) After culturing for 6 days, 10 μL CCK-8 was added to each well, and the plate was continually cultured in a 37° C., 5% CO2 cell incubator for 2.5 h. (2) The absorbance (OD value) was detected at 450 nm using a multifunctional microplate reader. (3) The data were analyzed by Dose-response-inhibition equation in the software GraphPad Prism6, and the IC50 value was obtained.

Setting [1] is: read-out: IC50 against CWR22RV1 cells.
The mark [2] stands for this setting: read-out: IC50 against CWR22RV1 cells (text).

For the compound `CNC(=O)Nc1ccc2c(c1)CC[C@@]21OC(=O)N(CC(=O)N2CCCC2c2ccccn2)C1=O` (stereo partly drawn) [Example 332, 1-((1R)-2′,4′-dioxo-3′-(2-oxo-2-(2-(pyridin-2-yl)pyrrolidin-1-yl)ethyl)-2,3-dihydrospiro[indene-1,5′-oxazolidine]-5-yl)-3-methylurea], the IC50 under setting [1] was over 2000 nM.
Take `CNC(=O)Nc1ccc2c(c1)CC[C@@]21OC(=O)N(CC(=O)N2CCC[C@H]2c2cc(C)n[nH]2)C1=O` [Example 333, 1-methyl-3-((R)-3′-(2-((S)-2-(3-methyl-1H-pyrazol-5-yl)pyrrolidin-1-yl)-2-oxoethyl)-2′,4′-dioxo-2,3-dihydrospiro[indene-1,5′-oxazolidine]-5-yl)urea]: the IC50 under setting [1] is over 2000 nM.
The same measure, in the same setting: the result for `CNC(=O)Nc1ccc2c(c1)CC[C@@]21OC(=O)N(CC(=O)N2CCCC2c2cccnc2)C1=O` (stereo partly drawn) [Example 334, 1-((1R)-2′,4′-dioxo-3′-(2-oxo-2-(2-(pyridin-3-yl)pyrrolidin-1-yl)ethyl)-2,3-dihydrospiro[indene-1,5′-oxazolidine]-5-yl)-3-methylurea] reads over 2000 nM; that for `CNC(=O)Nc1ccc2c(c1)CC[C@@]21OC(=O)N(CC(=O)N2CCCC2c2cccc(OC)c2)C1=O` (stereo partly drawn) [Example 335, 1-((1R)-3′-(2-(2-(3-methoxyphenyl)pyrrolidin-1-yl)-2-oxoethyl)-2′,4′-dioxo-2,3-dihydrospiro[indene-1,5′-oxazolidine]-5-yl)-3-methylurea], over 2000 nM.
`CNC(=O)Nc1ccc2c(c1)CC[C@@]21OC(=O)N(CC(=O)N2CCCC2c2ccccc2Br)C1=O` (stereo partly drawn) [Example 336, 1-((1R)-3′-(2-(2-(2-bromophenyl)pyrrolidin-1-yl)-2-oxoethyl)-2′,4′-dioxo-2,3-dihydrospiro[indene-1,5′-oxazolidine]-5-yl)-3-methylurea]: the IC50 under setting [1] was over 2000 nM.
Take `CNC(=O)Nc1ccc2c(c1)CC[C@@]21OC(=O)N(CC(=O)N2C(C)CCC2c2ccc(F)cc2OC)C1=O` (stereo partly drawn) [Example 337, 1-((1R)-3′-(2-(2-(4-fluoro-2-methoxyphenyl)-5-methylpyrrolidin-1-yl)-2-oxoethyl)-2′,4′-dioxo-2,3-dihydrospiro[indene-1,5′-oxazolidine]-5-yl)-3-methylurea]: the IC50 under setting [1] fell in the range of 500 to 2000 nM.
The same measure, in the same setting: with `CNC(=O)Nc1ccc2c(c1)CC[C@@]21OC(=O)N(CC(=O)N2CCCC2c2ccc(F)cc2OC)C1=O` (stereo partly drawn) [Example 340, 1-((1R)-3′-(2-(2-(4-fluoro-2-methoxyphenyl)pyrrolidin-1-yl)-2-oxoethyl)-2′,4′-dioxo-2,3-dihydrospiro[indene-1,5′-oxazolidine]-5-yl)-3-methylurea] the figure was over 2000 nM.
With `CNC(=O)Nc1ccc2c(c1)CC[C@@]21OC(=O)N(CC(=O)N2CCCC2c2ccc(OC)cc2OC)C1=O` (stereo partly drawn) [Example 341, 1-((1R)-3′-(2-(2-(2,4-dimethoxyphenyl)pyrrolidin-1-yl)-2-oxoethyl)-2′,4′-dioxo-2,3-dihydrospiro[indene-1,5′oxazolidin]-5-yl)-3-methylurea], under setting [1], the IC50 was over 2000 nM.
The same measure, in the same setting: with `CNC(=O)Nc1ccc2c(c1)CC[C@@]21OC(=O)N(CC(=O)N2CCCC2c2cccc[n+]2[O-])C1=O` (stereo partly drawn) [Example 343, 2-(1-(2-((R)-5-(3-methylureido)-2′,4′-dioxo-2,3-dihydrospiro[indene-1,5′-oxazole]-3′-yl)acetyl)pyrrolidin-2-yl)pyridin-1-oxide] the figure was over 2000 nM.
Take `CNC(=O)Nc1ccc2c(c1)CC[C@@]21OC(=O)N(CC(=O)N2CCCC2c2ccc(F)cc2C)C1=O` (stereo partly drawn) [Example 347, 1-((1R)-3′-(2-(2-(4-fluoro-2-methylphenyl)pyrrolidin-1-yl)-2-oxoethyl)-2′,4′-dioxo-2,3-dihydrospiro[indene-1,5′-oxazolidine]-5-yl)-3-methylurea]: the IC50 under setting [1] was 500 to 2000 nM.
For `CNC(=O)Nc1ccc2c(c1)CC[C@@]21OC(=O)N(CC(=O)N2C(C)CCC2c2ccc(F)cc2)C1=O` (stereo partly drawn) [Example 348, 1-((1R)-3′-(2-(2-(4-fluorophenyl)-5-methylpyrrolidin-1-yl)-2-oxoethyl)-2′,4′-dioxo-2,3-dihydrospiro[indene-1,5′-oxazolidine]-5-yl)-3-methylurea], the IC50 is at most 500 nM under setting [1] and at most 500 nM under setting [2].
For `CNC(=O)Nc1ccc2c(c1)CC[C@@]21OC(=O)N(CC(=O)N2C(C)CCC2(c2ccc(OC)cc2)c2ccc(OC)cc2)C1=O` (stereo partly drawn) [Example 349, 1-((1R)-3′-(2-(2,2-bis(4-methoxyphenyl)-5-methylpyrrolidin-1-yl)-2-oxoethyl)-2′,4′-dioxo-2,3-dihydrospiro[indene-1,5′-oxazolidine]-5-yl)-3-methylurea], under setting [1], the IC50 was over 2000 nM.
On to `CNC(=O)Nc1ccc2c(c1)CC[C@@]21OC(=O)N(CC(=O)N2C(C)CCC2c2ccc(Cl)cc2C)C1=O` (stereo partly drawn) [Example 351, 1-((1R)-3′-(2-(2-(4-chloro-2-methylphenyl)-5-methylpyrrolidin-1-yl)-2-oxoethyl)-2′,4′-dioxo-2,3-dihydrospiro[indene-1,5′-oxazolidine]-5-yl)-3-methylurea], for which the IC50 reads like this: under setting [1], at most 500 nM; under setting [2], at most 500 nM.
For `CNC(=O)Nc1ccc2c(c1)CC[C@@]21OC(=O)N(CC(=O)N2C(C)CCC2c2ccc(C(F)(F)F)cc2C)C1=O` (stereo partly drawn) [Example 352, 1-methyl-3-((1R)-3′-(2-(2-methyl-5-(2-methyl-4-(trifluoromethyl)phenyl)pyrrolidin-1-yl)-2-oxoethyl)-2′,4′-dioxo-2,3-dihydrospiro[indene-1,5′-oxazolidine]-5-yl)urea], under setting [1], the IC50 is over 2000 nM.
With `CNC(=O)Nc1ccc2c(c1)CC[C@@]21OC(=O)N(CC(=O)N2C(C)CCC2c2ccc(F)cc2C)C1=O` (stereo partly drawn) [Example 353, 1-((1R)-3′-(2-(2-(4-fluoro-2-methylphenyl)-5-methylpyrrolidin-1-yl)-2-oxoethyl)-2′,4′-dioxo-2,3-dihydrospiro[indene-1,5′-oxazolidine]-5-yl)-3-methylurea], the IC50 runs as follows: under setting [1], at most 500 nM; under setting [2], at most 500 nM.
Take `CNC(=O)Nc1ccc2c(c1)CC[C@@]21OC(=O)N(CC(=O)N2C(C)CCC2c2ccc(F)cc2Br)C1=O` (stereo partly drawn) [Example 354, 1-((1R)-3′-(2-(2-(2-bromo-4-fluorophenyl)-5-methylpyrrolidin-1-yl)-2-oxoethyl)-2′,4′-dioxo-2,3-dihydrospiro[indene-1,5′-oxazolidine]-5-yl)-3-methylurea]: the IC50 under setting [1] is 500 to 2000 nM.
Still for that read-out and setting: the result for `CNC(=O)Nc1ccc2c(c1)CCC21OC(=O)N(CC(=O)N2CCCCC23CCN(C(C)=O)CC3)C1=O` (stereo not shown) [Example 355, 1-(3′-(2-(9-acetyl-1,9--1-yl)-2-oxoethyl)-2′,4′-dioxo-2,3-dihydrospiro[indene-1,5′-oxazolidine]-5-yl)-3-methylurea] reads over 2000 nM; that for `CNC(=O)Nc1ccc2c(c1)CC[C@@]21OC(=O)N(CC(=O)N2C(C)CCC2c2ccc(F)cc2C(F)(F)F)C1=O` (stereo partly drawn) [Example 356, 1-((1R)-3′-(2-(2-(4-fluoro-2-(trifluoromethyl)phenyl)-5-methylpyrrolidin-1-yl)-2-oxoethyl)-2′,4′-dioxo-2,3-dihydrospiro[indene-1,5′-oxazolidine]-5-yl)-3-methylurea], over 2000 nM.
In the case of `CNC(=O)Nc1ccc2c(c1)CC[C@@]21OC(=O)N(CC(=O)N2[C@@H](C)CC[C@H]2C2CCCCC2)C1=O` [Example 357, 1-((R)-3′-(2-((2S,5S)-2-cyclohexyl-5-methylpyrrolidin-1-yl)-2-oxoethyl)-2′,4′-dioxo-2,3-dihydrospiro[indene-1,5′-oxazolidine]-5-yl)-3-methylurea], the IC50 was at most 500 nM under setting [1] and at most 500 nM under setting [2].
In the case of `CNC(=O)Nc1ccc2c(c1)CC[C@@]21OC(=O)N(CC(=O)N2C(C)CCC2c2ccc(F)c(Cl)c2)C1=O` (stereo partly drawn) [Example 359, 1-((1R)-3′-(2-(2-(3-chloro-4-fluorophenyl)-5-methylpyrrolidin-1-yl)-2-oxoethyl)-2′,4′-dioxo-2,3-dihydrospiro[indene-1,5′-oxazolidine]-5-yl)-3-methylurea], the IC50 is at most 500 nM under setting [1] and at most 500 nM under setting [2].
`CNC(=O)Nc1ccc2c(c1)CCC21OC(=O)N(CC(=O)N2[C@@H](CO)CC[C@H]2c2ccc(F)cc2)C1=O` (stereo partly drawn) [Example 361, 1-(3′-(2-((2S,5R)-2-(4-fluorophenyl)-5-(hydroxymethyl)pyrrolidin-1-yl)-2-oxoethyl)-2′,4′-dioxo-2,3-dihydrospiro[indene-1,5′-oxazolidine]-5-yl)-3-methylurea]: under setting [1], the IC50 was in the range of 500 to 2000 nM.
Same read-out and setting: the result for `CNC(=O)Nc1ccc2c(c1)CC[C@@]21OC(=O)N(CC(=O)N2C(c3ccc(F)cc3)CC[C@H]2CO)C1=O` (stereo partly drawn) [Example 363, 1-((1R)-3′-(2-((5S)-2-(4-fluorophenyl)-5-(hydroxymethyl)pyrrolidin-1-yl)-2-oxoethyl)-2′,4′-dioxo-2,3-dihydrospiro[indene-1,5′-oxazolidine]-5-yl)-3-methylurea] reads over 2000 nM.
The same measure, in the same setting: the result for `CNC(=O)Nc1ccc2c(c1)CC[C@@]21OC(=O)N(CC(=O)N2C(c3ccc(F)cc3)CCC2(C)C)C1=O` (stereo partly drawn) [Example 365, 1-((1R)-3′-(2-(5-(4-fluorophenyl)-2,2-dimethylpyrrolidin-1-yl)-2-oxoethyl)-2′,4′-dioxo-2,3-dihydrospiro[indene-1,5′-oxazolidine]-5-yl)-3-methylurea] reads 500 to 2000 nM.
